Results reported in PMC13588620, “Linear antibody epitope prediction using AlphaFold2” (eLife, 2026).
“Also recorded” adds a separate entry of the source.

Test system: mBG17 binding to SARS-CoV-2 nucleocapsid protein
Assay: Alanine-scan peptide competition ELISA with serial peptide dilution
Parameters: species or system mouse
Conditions: 4-fold serial dilution of peptide from 40 μg to ~2.5 ng; absorbance at 450 nm; n=3; percentage of binding from no-peptide control

## ADFSKQLQQS [D1A]
  competition of mBG17 binding to nucleocapsid protein by alanine mutant peptides, compared with the WT peptide: no change in competition; also recorded: less disruptive to binding

## DDASKQLQQS [F3A]
  competition of mBG17 binding to nucleocapsid protein by alanine mutant peptides, compared with the WT peptide: strong reductions in competition

## DDFSKQAQQS [L7A]
  competition of mBG17 binding to nucleocapsid protein by alanine mutant peptides, compared with the WT peptide: strong reductions in competition

## DDFSKQLAQS [Q8A]
  competition of mBG17 binding to nucleocapsid protein by alanine mutant peptides, compared with the WT peptide: strong reductions in competition

## DDFSKQLQQS [a.a. 401–410]
  competition of mBG17 binding to nucleocapsid protein by alanine mutant peptides, compared with the WT peptide: strong competition

## DDFSKALQQS [Q6A]
  competition of mBG17 binding to nucleocapsid protein by alanine mutant peptides, compared with the WT peptide: minor reductions in competition; also recorded: less disruptive to binding
